{
  "source": "patent US20210300921A1",
  "about": "“EP4 INHIBITORS AND SYNTHESIS THEREOF” (Arrys Therapeutics, Inc., priority 2018, published 2021)",
  "format_in_all_cases": "in vivo, BALB/c mice",
  "key": {"[1]": {"test_system": "CT-26 mouse colon adenocarcinoma model", "test": "Antitumor activity in the CT-26 mouse colon adenocarcinoma model, Compound X with or without anti-PD-1 (10 mice per cohort)", "conditions": "for tumor growth kinetics during the treatment period: versus single agent anti-PD-1; for tumor growth kinetics during the period of dosing: versus vehicle", "experimental": "The antitumor activity of Compound X as a single agent and combined with a mouse anti-PD-1 antibody was evaluated in the CT-26 mouse colon adenocarcinoma model grown in BALB/c mice. Mice were inoculated subcutaneously in the right flank with 5×10^5 tumor cells. When tumors reached an average size of 71 mm^3 (6 days after tumor cell inoculation) dosing was initiated. The dosing regimens in the 8 separate cohorts comprising 10 mice each are as follows: […]"}, "CT-26 tumors": {"test_system": "CT-26 tumors", "test": "Immune cell composition of CT-26 tumors by flow cytometry after 7 days of dosing", "conditions": "for percentage of dendritic cells (CD45, CD11c positive) in tumors: FIG. 7b; for regulatory T cells (CD45, CD4, FoxP3, CD25 positive) in tumors: versus vehicle, FIG. 7a; for percentage of activated T cells (CD45, CD3, CD8) by CD25 expression in tumors: FIG. 7c", "experimental": "The immune cell composition of Compound X (the compound as described in Example 15, above) as a single agent and combined with a mouse anti-PD1 antibody was evaluated in the CT-26 mouse colon adenocarcinoma model grown in BALB/c mice. Mice were inoculated subcutaneously in the right flank with 5×10^5 tumor cells. When tumors reached an average size of 85 mm^3 dosing was initiated. The dosing regimens in the 4 separate cohorts comprising 10 mice each are listed as follows:\nAfter dosing animals for 7 days, tumors were resected and used to prepare single cell suspensions. Live cells representing tumor and immune cells were stained with cocktails of antibodies targeting multiple immune cell markers (anti-CD45, anti-CD3, anti-CD4, anti-CD8, anti-CD25, anti-FoxP3, anti-PD-1, anti-CD11c) conjugated to different fluorescent tags. The stained cells were fixed in 4% paraformaldehyde and quantified using a multi-color flow cytometer (Fortessa). The data was analyzed with FloJo software."}, "[2]": {"test_system": "4T1 mouse breast cancer model", "test": "Antitumor activity in the 4T1 mouse breast cancer model, Compound X with or without anti-CTLA4", "conditions": "for tumor growth kinetics during the period of dosing: FIG. 3", "experimental": "The antitumor activity of Compound X (the compound as described in Example 15, above) as a single agent and combined with a mouse anti-CTLA4 antibody was evaluated in the 4T1 mouse breast cancer model grown in BALB/c mice. Mice were inoculated subcutaneously in the right flank with 3×10^5 tumor cells. When tumors reached an average size of 100 mm^3 (7 days after tumor cell inoculation) dosing was initiated."}, "[3]": {"test_system": "4T1 mouse breast cancer model", "test": "Antitumor activity in the 4T1 mouse breast cancer model, additional experiment with anti-PD1 (7 mice per cohort)", "conditions": "FIG. 6", "experimental": "The antitumor activity of Compound X as a single agent and combined with a mouse anti-PD1 antibody was evaluated in the 4T1 mouse breast cancer model grown in BALB/c mice in an additional experiment. Mice were inoculated subcutaneously in the right flank with 3×10^5 tumor cells. When tumors reached an average size of 97 mm^3 dosing was initiated. The dosing regimens in the 4 separate cohorts comprising 7 mice each are as follows: […]"}, "[4]": {"test_system": "CT-26 mouse colon adenocarcinoma model", "test": "Antitumor activity in the CT-26 mouse colon adenocarcinoma model, additional experiment (7 mice per cohort)", "conditions": "FIG. 5", "experimental": "The antitumor activity of Compound X as a single agent and combined with a mouse anti-PD1 antibody was evaluated in the CT-26 mouse colon adenocarcinoma model grown in BALB/c mice in an additional experiment. Mice were inoculated subcutaneously in the right flank with 5×10^5 tumor cells. When tumors reached an average size of 91 mm^3 dosing was initiated. The dosing regimens in the 4 separate cohorts comprising 7 mice each are as follows: […]"}, "[5]": {"conditions": "single agent: Compound X 15 mg/kg BID x7 days po or anti-PD-1 10 mg/kg Q3D x3 ip"}, "[6]": {"conditions": "Compound X 15 mg/kg BID in combination with anti-CTLA4"}},
  "data": [
    {"compound": "C[C@H](NC(=O)c1cc(Cl)cnc1Oc1cccc(F)c1)c1ccc(C(=O)O)cc1", "note": "[Compound X]", "values": [
      {"measurement": "mice still alive 99 days after tumor inoculation", "setting": "[1]; Compound X 15 mg/kg BID in combination with anti-PD-1", "result": "5 out of 10"},
      {"measurement": "growth kinetics after treatment was discontinued", "setting": "[1]; Compound X 15 mg/kg BID in combination with anti-PD-1, FIG. 1", "result": "decreased growth kinetics relative to anti-PD-1"},
      {"measurement": "survival after treatment was discontinued", "setting": "[1]; Compound X 15 mg/kg BID in combination with anti-PD-1, FIG. 2", "result": "improved survival"},
      {"measurement": "tumor free mice 99 days after tumor inoculation", "setting": "[1]; Compound X 15 mg/kg BID in combination with anti-PD-1, of 10 mice", "result": 4},
      {"measurement": "tumor growth kinetics during the treatment period", "setting": "[1]; Compound X 15 mg/kg BID p.o. combined with anti-PD-1 10 mg/kg i.p.", "result": "not notably different mice treated with single agent anti-PD-1"},
      {"measurement": "tumor growth kinetics during the period of dosing", "setting": "[1]; Compound X 15 mg/kg BID p.o., single agent, FIG. 1", "result": "not notably different from the vehicle treated mice"},
      {"measurement": "tumor growth kinetics during the treatment period", "setting": "[1]; Compound X 15 mg/kg QD p.o. combined with anti-PD-1 10 mg/kg i.p.", "result": "not notably different mice treated with single agent anti-PD-1"},
      {"measurement": "tumor growth kinetics during the period of dosing", "setting": "[1]; Compound X 15 mg/kg QD p.o., single agent, FIG. 1", "result": "not notably different from the vehicle treated mice"},
      {"measurement": "mice still alive and tumor free 99 days after tumor inoculation", "setting": "[1]; single agent", "result": "1 out of 10"},
      {"measurement": "percentage of dendritic cells (CD45, CD11c positive) in tumors", "setting": "CT-26 tumors; Compound X 15 mg/kg BID dosed with anti-PD-1 10 mg/kg Q3D", "result": "increased percentage"},
      {"measurement": "regulatory T cells (CD45, CD4, FoxP3, CD25 positive) in tumors", "setting": "CT-26 tumors; combination of Compound X 15 mg/kg BID and anti-PD-1 10 mg/kg Q3D", "result": "significant decrease"},
      {"measurement": "percentage of activated T cells (CD45, CD3, CD8) by CD25 expression in tumors", "setting": "CT-26 tumors; combination of Compound X 15 mg/kg BID with anti-PD-1 10 mg/kg Q3D", "result": "increased percentage"},
      {"measurement": "percentage of activated T cells (CD45, CD3, CD8) by CD25 expression in tumors", "setting": "CT-26 tumors; either agent dosed alone", "result": "did not"},
      {"measurement": "percentage of dendritic cells (CD45, CD11c positive) in tumors", "setting": "CT-26 tumors; [5]", "result": "increased percentage"},
      {"measurement": "regulatory T cells (CD45, CD4, FoxP3, CD25 positive) in tumors", "setting": "CT-26 tumors; [5]", "result": "significant decrease"},
      {"measurement": "mice still alive 47 days after tumor inoculation", "setting": "[2]; [6]", "result": "7 of 10"},
      {"measurement": "mice still alive at the end of the study 55 days after tumor inoculation", "setting": "[2]; [6]", "result": "3 of 10"},
      {"measurement": "survival rate after treatment was discontinued", "setting": "[2]; Compound X 15 mg/kg BID in combination with anti-CTLA4, FIG. 4", "result": "improved survival rate relative to either single agent alone"},
      {"measurement": "tumor growth kinetics during the period of dosing", "setting": "[2]; Compound X and anti-CTLA4 combined, versus either agent alone", "result": "decreased relative to either agent when dosed alone"},
      {"measurement": "mice alive 47 days after tumor inoculation", "setting": "[2]; single agent alone", "result": "none"},
      {"measurement": "tumor growth kinetics during the period of dosing", "setting": "[2]; single agent: Compound X 15 mg/kg BID or anti-CTLA4, versus vehicle", "result": "decreased relative to the vehicle treated mice"},
      {"measurement": "tumor growth kinetics during the period of dosing", "setting": "[3]; Compound X 15 mg/kg BID combined with anti-PD1 10 mg/kg BIW ip", "result": "lower than mice treated with either single agent"},
      {"measurement": "tumor growth kinetics during the period of dosing", "setting": "[3]; Compound X 15 mg/kg BID po, single agent", "result": "less than that of the vehicle group and anti-PD1 when dosed alone"},
      {"measurement": "tumor growth kinetics during the period of dosing", "setting": "[4]; Compound X 15 mg/kg BID combined with anti-PD1 10 mg/kg BIW ip, versus single agents", "result": "lower than mice treated with either single agent"},
      {"measurement": "tumor growth kinetics during the period of dosing", "setting": "[4]; single agent: Compound X 15 mg/kg BID po or anti-PD1 10 mg/kg BIW ip, versus vehicle", "result": "less than that of the vehicle group"}
    ]}
  ]
}
